The record followed here is patent US20250145609A1, “3-SUBSTITUTED PYRIDAZINE COMPOUNDS AS SMARCA2 AND/OR SMARCA4 DEGRADERS” (Aurigene Oncology Limited, priority 2022, published 2025).

Broadly, the pEC50 is the EC50 on a negative log10 scale, so that one unit is a factor of ten. Lower therefore signals a high EC50.

Type in all cases: cell-based
For test [1], the system named is VCaP cells. As to the kind of experiment: Anti proliferative activity in VCaP cell line by CellTiter Glo assay. The conditions noted are these: Homo sapiens, VCaP, 192 h, 8 days incubation, CellTiter Glo luminescence. As for the experimental part:
Example-P1: Determination of Anti Proliferative Activity of Compounds in Cell Lines VCaP by Cell Titer Glo©(Promega) Assay
VCaP (ATCC CRL-2876) cells were seeded in 96 well plate flat black clear bottom plates (Corning, Cat. No 3904) using complete DMEM Medium. Next day, compounds listed in the present invention were added to cells from 10 mM stocks made in DMSO (Sigma Cat no. D2650). Each concentration of compound was tested in triplicate with DMSO concentration at a final percentage not exceeding 0.3 in the cells. After the incubation of VCaP cells with compound for 8 days assay was terminated using 50 μl of CellTiter Glo© reagent (Promega, Cat. no G7572). CellTiter-Glo® Luminescent reagent determines the number of viable cells based on quantitation of ATP present which is an indicator of cell number and metabolic activity. Luminescence readings were taken in Victor-3 instrument. Percent inhibition of proliferation was calculated using formula, % inhibition=100−(luminescence value of test/luminescence value of DMSO control)*100. DMSO control (0%)=Cells in complete media with DMSO; blank=Media alone containing DMSO. EC50 was calculated using graph pad prism software.
Herein the group “A” refers to EC50 values lower than l0 nM, group “B” refers to EC50 values between l0 nM-100 nM (both inclusive) and group “C” refers to EC50 values greater than 100 nM.

Test [2] has as its target T1, SMARCA4 (Homo sapiens, UniProt P51532).
T1 construct: endogenous in cells; host or cells: VCaP (ATCC CRL-2876)
As to the kind of experiment: SMARCA4 degradation in VCaP cells by Western blot. Particulars: at 100 nM; for Percent SMARCA4 degradation at 0.1 µM: VCaP, 16 h. As for the experimental part: (§1) Example-P2: Determination of SMARCA2 and SMARCA4 Degradation in VCaP Cells by Western Blot
(§2) VCaP (ATCC CRL-2876) was plated in 6 well plates using complete Dulbecco's Modified Eagle's Medium. On the third day, compounds of present invention were added to cells from 10 mM stocks made in DMSO (Sigma Cat no. D2650). Each compound was tested at 100 nM concentration with DMSO not exceeding final percentage of 0.3 in the cells. Cells were incubated with the compound for 16 hours followed by harvesting with 1×RIPA lysis buffer (Thermo Fischer, catalogue number #89900) containing protease inhibitor cocktail (Sigma catalogue number #P-8340). Equal amount of protein was loaded on SDS PAGE gel for electrophoresis. Western blot was carried out for detection of either SMARCA2 (Cell signalling technologies, catalogue number #11966) or SMARCA4 antibody (Cell signalling technologies, catalogue number #52251). Beta-Tubulin antibody (Cell signalling technologies, catalogue number #86298) was used as loading control. Percentage of SMARCA2 or SMARCA4 degradation was calculated by using formula: […]
(In western blotting, separated proteins are transferred to a membrane and probed.)

In test [3] the target is T2, SMARCA2 (Homo sapiens, UniProt P51531).
T2 construct: endogenous in cells; host or cells: VCaP (ATCC CRL-2876)
As to the kind of experiment: SMARCA2 degradation in VCaP cells by Western blot. Particulars: at 100 nM, 16 hours. On the procedure:
as §1, §2

pEC50: −log10 of the molar value.

T2 sequence (P51531 whole entry): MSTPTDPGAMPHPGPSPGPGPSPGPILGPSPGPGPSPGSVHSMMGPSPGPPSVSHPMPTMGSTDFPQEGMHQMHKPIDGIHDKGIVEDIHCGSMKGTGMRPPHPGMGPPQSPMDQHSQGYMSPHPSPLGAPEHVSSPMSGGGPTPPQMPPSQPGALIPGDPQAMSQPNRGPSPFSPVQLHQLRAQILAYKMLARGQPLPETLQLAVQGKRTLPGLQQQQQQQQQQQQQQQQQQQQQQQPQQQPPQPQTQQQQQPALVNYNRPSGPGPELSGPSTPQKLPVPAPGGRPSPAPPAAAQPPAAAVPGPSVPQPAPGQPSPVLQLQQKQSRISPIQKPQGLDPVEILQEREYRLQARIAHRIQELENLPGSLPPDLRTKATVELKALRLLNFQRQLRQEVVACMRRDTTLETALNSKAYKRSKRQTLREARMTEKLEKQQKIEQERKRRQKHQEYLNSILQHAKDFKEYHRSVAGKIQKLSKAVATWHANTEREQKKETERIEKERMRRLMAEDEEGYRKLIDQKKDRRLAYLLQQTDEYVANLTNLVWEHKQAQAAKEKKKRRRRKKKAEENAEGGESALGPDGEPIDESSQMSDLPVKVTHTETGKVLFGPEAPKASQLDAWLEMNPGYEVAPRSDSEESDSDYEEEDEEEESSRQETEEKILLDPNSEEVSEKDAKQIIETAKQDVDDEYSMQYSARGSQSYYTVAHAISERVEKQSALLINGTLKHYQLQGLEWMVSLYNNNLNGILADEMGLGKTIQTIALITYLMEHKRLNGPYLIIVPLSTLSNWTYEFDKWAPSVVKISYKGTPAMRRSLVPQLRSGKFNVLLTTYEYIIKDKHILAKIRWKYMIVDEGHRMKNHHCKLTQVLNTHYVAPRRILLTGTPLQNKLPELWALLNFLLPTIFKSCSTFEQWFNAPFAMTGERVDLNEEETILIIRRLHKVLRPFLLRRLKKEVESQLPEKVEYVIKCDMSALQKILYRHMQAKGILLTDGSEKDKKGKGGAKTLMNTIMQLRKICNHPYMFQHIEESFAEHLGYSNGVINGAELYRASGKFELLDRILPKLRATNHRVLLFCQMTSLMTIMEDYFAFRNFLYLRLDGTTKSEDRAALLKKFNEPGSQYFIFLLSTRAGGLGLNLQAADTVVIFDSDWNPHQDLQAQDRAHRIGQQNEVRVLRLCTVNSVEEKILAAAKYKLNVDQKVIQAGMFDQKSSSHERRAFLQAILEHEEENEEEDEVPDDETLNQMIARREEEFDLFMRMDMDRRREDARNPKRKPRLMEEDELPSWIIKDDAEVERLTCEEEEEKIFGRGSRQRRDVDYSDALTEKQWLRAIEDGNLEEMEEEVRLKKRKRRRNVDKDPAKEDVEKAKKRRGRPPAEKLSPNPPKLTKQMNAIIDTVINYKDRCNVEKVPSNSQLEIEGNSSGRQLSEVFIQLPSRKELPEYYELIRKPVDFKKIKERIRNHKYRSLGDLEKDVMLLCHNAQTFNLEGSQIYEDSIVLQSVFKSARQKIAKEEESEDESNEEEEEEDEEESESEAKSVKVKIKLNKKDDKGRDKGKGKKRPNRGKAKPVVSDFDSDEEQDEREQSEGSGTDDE
T1 sequence (P51532 whole entry): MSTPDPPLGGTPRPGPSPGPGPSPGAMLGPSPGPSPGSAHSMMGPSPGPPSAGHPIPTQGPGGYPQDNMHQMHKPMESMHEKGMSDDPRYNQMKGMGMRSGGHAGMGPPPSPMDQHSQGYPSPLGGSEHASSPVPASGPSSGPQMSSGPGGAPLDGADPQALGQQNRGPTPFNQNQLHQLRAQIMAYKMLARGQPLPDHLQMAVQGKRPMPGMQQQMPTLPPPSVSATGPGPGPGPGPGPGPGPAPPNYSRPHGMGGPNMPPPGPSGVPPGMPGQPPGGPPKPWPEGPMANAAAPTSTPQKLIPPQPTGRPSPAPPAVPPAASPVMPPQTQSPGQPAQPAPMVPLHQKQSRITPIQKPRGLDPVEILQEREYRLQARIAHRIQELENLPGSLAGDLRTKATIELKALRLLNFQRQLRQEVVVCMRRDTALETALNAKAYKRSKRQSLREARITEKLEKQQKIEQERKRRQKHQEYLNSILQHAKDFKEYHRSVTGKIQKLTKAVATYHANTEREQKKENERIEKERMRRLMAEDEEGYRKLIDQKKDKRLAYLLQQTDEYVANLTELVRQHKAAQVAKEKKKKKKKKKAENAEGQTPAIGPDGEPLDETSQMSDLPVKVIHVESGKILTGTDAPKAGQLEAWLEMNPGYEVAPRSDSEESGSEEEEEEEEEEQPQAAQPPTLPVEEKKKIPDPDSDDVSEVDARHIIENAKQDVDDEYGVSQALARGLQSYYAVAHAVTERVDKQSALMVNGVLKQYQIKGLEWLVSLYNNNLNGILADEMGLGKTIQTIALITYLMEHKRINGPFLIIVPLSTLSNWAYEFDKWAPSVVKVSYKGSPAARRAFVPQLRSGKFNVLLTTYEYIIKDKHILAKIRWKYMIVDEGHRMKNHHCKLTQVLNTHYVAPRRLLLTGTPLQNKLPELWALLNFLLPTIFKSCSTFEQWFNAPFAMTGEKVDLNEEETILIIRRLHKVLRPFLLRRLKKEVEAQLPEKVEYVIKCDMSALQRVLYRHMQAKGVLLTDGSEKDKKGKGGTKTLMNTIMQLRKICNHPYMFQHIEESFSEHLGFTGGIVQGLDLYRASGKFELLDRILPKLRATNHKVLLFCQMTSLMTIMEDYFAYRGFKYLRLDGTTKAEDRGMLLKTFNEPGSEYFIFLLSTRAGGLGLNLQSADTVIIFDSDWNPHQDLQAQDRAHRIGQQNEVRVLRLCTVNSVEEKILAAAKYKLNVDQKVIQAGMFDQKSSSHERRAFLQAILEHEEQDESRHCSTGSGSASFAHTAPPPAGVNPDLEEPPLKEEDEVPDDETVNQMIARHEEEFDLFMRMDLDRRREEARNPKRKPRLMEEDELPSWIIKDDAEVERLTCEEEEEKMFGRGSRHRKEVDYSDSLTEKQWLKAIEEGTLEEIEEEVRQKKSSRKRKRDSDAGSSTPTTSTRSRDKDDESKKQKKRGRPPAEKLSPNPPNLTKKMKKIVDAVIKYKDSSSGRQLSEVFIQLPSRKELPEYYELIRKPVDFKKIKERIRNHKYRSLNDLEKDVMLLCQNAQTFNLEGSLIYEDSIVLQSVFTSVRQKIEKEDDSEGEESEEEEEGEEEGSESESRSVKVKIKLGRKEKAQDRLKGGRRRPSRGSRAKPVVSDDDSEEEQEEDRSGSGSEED

In turn, `Cc1ncsc1-c1ccc([C@H](C)NC(=O)[C@@H]2C[C@@H](O)CN2C(=O)[C@@H](NC(=O)CN2CCN(c3ccc(-c4cc(-c5ccccc5O)nnc4N)c(F)c3)CC2)C(C)(C)C)cc1` [Compound 28, (2S,4R)-1-((S)-2-(2-(4-(4-(3-amino-6-(2-hydroxyphenyl)pyridazin-4-yl)-3-fluorophenyl)piperazin-1-yl)acetamido)-3,3-dimethylbutanoyl)-4-hydroxy-N—((S)-1-(4-(4-methylthiazol-5-yl)phenyl)ethyl)pyrrolidine-2-carboxamide] had a pEC50 in test [1] of 7.00 to 8.00. The same compound displayed a Percent SMARCA4 degradation at 0.1 µM in test [2] of 67%. The “Percent degradation SMARCA2” value in test [3] is given as 96%.

`Cc1ncsc1-c1ccc(CNC(=O)[C@@H]2C[C@@H](O)CN2C(=O)[C@@H](NC(=O)CN2CCC(c3ccc(-c4cc(-c5ccccc5O)nnc4N)cc3)CC2)C(C)(C)C)cc1` [Compound 30, (2S,4R)-1-((S)-2-(2-(4-(4-(3-amino-6-(2-hydroxyphenyl)pyridazin-4-yl)phenyl)piperidin-1-yl)acetamido)-3,3-dimethylbutanoyl)-4-hydroxy-N-(4-(4-methylthiazol-5-yl)benzyl)pyrrolidine-2-carboxamide] gave a pEC50 in test [1] of 7.00 to 8.00. The same compound had a Percent SMARCA4 degradation at 0.1 µM in test [2] of 63%. Further, the “Percent degradation SMARCA2” value in test [3] is given as 92%.

The compound `Cc1ncsc1-c1ccc([C@H](C)NC(=O)[C@@H]2C[C@@H](O)CN2C(=O)[C@@H](NC(=O)Cn2ccc(-c3ccc(-c4cc(-c5ccccc5O)nnc4N)cc3)c2)C(C)(C)C)cc1` [Compound 50, (2S,4R)-1-((S)-2-(2-(3-(4-(3-amino-6-(2-hydroxyphenyl)pyridazin-4-yl)phenyl)-1H-pyrrol-1-yl)acetamido)-3,3-dimethylbutanoyl)-4-hydroxy-N-((S)-1-(4-(4-methylthiazol-5-yl)phenyl)ethyl)pyrrolidine-2-carboxamide] had a pEC50 in test [1] of less than 7.00. Further, the Percent SMARCA4 degradation at 0.1 µM in test [2] was found to be 0%. Besides, the “Percent degradation SMARCA2” value in test [3] turned out to be 85%.

On to `Cc1ncsc1-c1ccc([C@H](C)NC(=O)[C@@H]2C[C@@H](O)CN2C(=O)[C@@H](NC(=O)CN2CCC(c3ccc(-c4cc(-c5ccccc5O)nnc4N)cc3)CC2C)C(C)(C)C)cc1` (single isomer, unassigned) [Compound 36], for which, in test [1], the pEC50 is greater than 8.00. This compound returned a Percent SMARCA4 degradation at 0.1 µM in test [2] of 86%. The “Percent degradation SMARCA2” value in test [3] amounted to 99%.

As for `Cc1ncsc1-c1ccc([C@H](C)NC(=O)[C@@H]2C[C@@H](O)CN2C(=O)[C@@H](NC(=O)CCCC#Cc2ccc(-c3cc(-c4ccccc4O)nnc3N)cc2)C(C)(C)C)cc1` [Compound 19, (2S,4R)-1-((S)-2-(6-(4-(3-amino-6-(2-hydroxyphenyl)pyridazin-4-yl)phenyl)hex-5-ynamido)-3,3-dimethylbutanoyl)-4-hydroxy-N—((S)-1-(4-(4-methylthiazol-5-yl)phenyl)ethyl)pyrrolidine-2-carboxamide], the pEC50 in test [1] is greater than 8.00. Besides, the Percent SMARCA4 degradation at 0.1 µM in test [2] amounted to 96%. Also, the “Percent degradation SMARCA2” value in test [3] came to 96%.

On to `Cc1ncsc1-c1ccc([C@H](C)NC(=O)[C@@H]2C[C@@H](O)CN2C(=O)[C@@H](NC(=O)CN2CCN(c3ccc(-c4cc(-c5ccccc5O)nnc4N)cn3)CC2)C(C)(C)C)cc1` [Compound 25, (2S,4R)-1-((S)-2-(2-(4-(5-(3-amino-6-(2-hydroxyphenyl)pyridazin-4-yl)pyridin-2-yl)piperazin-1-yl)acetamido)-3,3-dimethylbutanoyl)-4-hydroxy-N—((S)-1-(4-(4-methylthiazol-5-yl)phenyl)ethyl)pyrrolidine-2-carboxamide], for which the pEC50 in test [1] is greater than 8.00. In addition, the Percent SMARCA4 degradation at 0.1 µM in test [2] is 92%. For the same compound, the “Percent degradation SMARCA2” value in test [3] was determined as 97%.

`Cc1ncsc1-c1ccc([C@H](C)NC(=O)[C@@H]2C[C@@H](O)CN2C(=O)[C@@H](NC(=O)CN2CCC(c3ccc(-c4cc(-c5cc(F)ccc5O)nnc4N)cc3)CC2)C(C)(C)C)cc1` [Compound 31, (2S,4R)-1-((S)-2-(2-(4-(4-(3-amino-6-(5-fluoro-2-hydroxyphenyl)pyridazin-4-yl)phenyl)piperidin-1-yl)acetamido)-3,3-dimethylbutanoyl)-4-hydroxy-N-((S)-1-(4-(4-methylthiazol-5-yl)phenyl)ethyl)pyrrolidine-2-carboxamide] had a pEC50 in test [1] of 7.00 to 8.00. Moreover, the Percent SMARCA4 degradation at 0.1 µM in test [2] came out at 90%. Also, in test [3], the “Percent degradation SMARCA2” value amounted to 99%.

In test [1], `Cc1ncsc1-c1ccc([C@H](C)NC(=O)[C@@H]2C[C@@H](O)CN2C(=O)[C@@H](NC(=O)CN2CCC(c3ccc(-c4cc(-c5ccccc5O)nnc4N)cc3)C2)C(C)(C)C)cc1` (stereo partly drawn) [Compound 51, (2S,4R)-1-((2S)-2-(2-(3-(4-(3-amino-6-(2-hydroxyphenyl)pyridazin-4-yl)phenyl)pyrrolidin-1-yl)acetamido)-3,3-dimethylbutanoyl)-4-hydroxy-N-((S)-1-(4-(4-methylthiazol-5-yl)phenyl)ethyl)pyrrolidine-2-carboxamide] gave a negative-log EC50 (pEC50) of 7.00 to 8.00. In addition, the Percent SMARCA4 degradation at 0.1 µM in test [2] was found to be 24%. Also, the “Percent degradation SMARCA2” value in test [3] is listed as 95%.

On to `Cc1ncsc1-c1ccc([C@H](C)NC(=O)[C@@H]2C[C@@H](O)CN2C(=O)[C@@H](NC(=O)CC#Cc2ccc(-c3cc(-c4ccccc4O)nnc3N)cc2)C(C)(C)C)cc1` [Compound 21, (2S,4R)-1-((S)-2-(4-(4-(3-amino-6-(2-hydroxyphenyl)pyridazin-4-yl)phenyl)but-3-ynamido)-3,3-dimethylbutanoyl)-4-hydroxy-N-((S)-1-(4-(4-methylthiazol-5-yl)phenyl)ethyl)pyrrolidine-2-carboxamide], for which the negative logarithm of the EC50 (pEC50) in test [1] was less than 7.00. This compound displayed a Percent SMARCA4 degradation at 0.1 µM in test [2] of 71%. Besides, the “Percent degradation SMARCA2” value in test [3] is 97%.

With `Cc1ncsc1-c1ccc([C@H](C)NC(=O)[C@@H]2C[C@@H](O)CN2C(=O)[C@@H](NC(=O)CCCCOc2ccc(-c3cc(-c4ccccc4O)nnc3N)cc2)C(C)(C)C)cc1` [Compound 58, (2S,4R)-1-((S)-2-(5-(4-(3-amino-6-(2-hydroxyphenyl)pyridazin-4-yl)phenoxy)pentanamido)-3,3-dimethylbutanoyl)-4-hydroxy-N—((S)-1-(4-(4-methylthiazol-5-yl)phenyl)ethyl)pyrrolidine-2-carboxamide], the pEC50 in test [1] is 7.00 to 8.00. In test [2], the Percent SMARCA4 degradation at 0.1 µM stood at 90%. The “Percent degradation SMARCA2” value in test [3] came to 99%.

For the compound `Cc1ncsc1-c1ccc([C@H](C)NC(=O)[C@@H]2C[C@@H](O)CN2C(=O)[C@@H](NC(=O)CN2CC(c3ccc(-c4cc(-c5ccccc5O)nnc4N)cc3)C2)C(C)(C)C)cc1` [Compound 52, (2S,4R)-1-((S)-2-(2-(3-(4-(3-amino-6-(2-hydroxyphenyl)pyridazin-4-yl)phenyl)azetidin-1-yl)acetamido)-3,3-dimethylbutanoyl)-4-hydroxy-N-((S)-1-(4-(4-methylthiazol-5-yl)phenyl)ethyl)pyrrolidine-2-carboxamide], in test [1], the pEC50 is less than 7.00. This compound also yielded a Percent SMARCA4 degradation at 0.1 µM in test [2] of 70%. The “Percent degradation SMARCA2” value in test [3] was 97%.

`Cc1ncsc1-c1ccc([C@H](C)NC(=O)[C@@H]2C[C@@H](O)CN2C(=O)[C@@H](NC(=O)C(C)N2CCC(c3ccc(-c4cc(-c5ccccc5O)nnc4N)cc3)CC2)C(C)(C)C)cc1` (single isomer, unassigned) [Compound 34] had a pEC50 in test [1] of less than 7.00. Further, in test [2] (16 hours), the “Percent degradation SMARCA4” value came out at 0%. Further, the “Percent degradation SMARCA2” value in test [3] was found to be 91%.

Compound `Cc1ncsc1-c1ccc([C@H](C)NC(=O)[C@@H]2C[C@@H](O)CN2C(=O)C(C(C)C)n2cc(-c3ccc(-c4cc(-c5ccccc5O)nnc4N)cc3)cn2)cc1` (stereo partly drawn) [Compound 11, (2S,4R)-1-(2-(4-(4-(3-amino-6-(2-hydroxyphenyl)pyridazin-4-yl)phenyl)-1H-pyrazol-1-yl)-3-methylbutanoyl)-4-hydroxy-N—((S)-1-(4-(4-methylthiazol-5-yl)phenyl)ethyl)pyrrolidine-2-carboxamide] showed a pEC50 in test [1] of 7.00 to 8.00. For the same compound, the Percent SMARCA4 degradation at 0.1 µM in test [2] came to 51%. For the same compound, the “Percent degradation SMARCA2” value in test [3] was 98%.
